Entries after “also recorded” stand apart in the source; their conditions may differ. Each block holds one molecule with its values, some of them ahead of it.
Columns and labels:
[1] = system: embryonic cortical neurons; assay: Embryonic cortical neuron axon outgrowth, competition with 6-thioguanine (FIG. 1); type: cell-based, rat; conditions: 6-TG 0-80 μM added 1 hour before hypoxanthine or inosine, 3 days growth
Procedure: FIG. 1 contains two separate sets of bar graphs and line graphs representative of data obtained from embryonic cortical neuron competition experiments.
(§1) These experiments were done on embryonic cortical neurons. The forebrains of […] rat pups were dissected and plated in media containing serum. After 3 hours the medium was exchanged for Medium E (Irwin et al. 2006) (Proc Nati Acad Sci U S A. 2006 Nov 28;103(48):18320-5). The cells were treated the following day with inosine or hypoxanthine, in the presence and absence of the indicated amount of the inhibitor 6-thioguanine (6-TG), and allowed to grow for 3 days. The 6-TG was added 1 hour before the hypoxanthine or inosine. Following the three days of growth, the cells were fixed and stained with Taul antibody and a fluorescent secondary antibody. Axons were then counted. […] FIG. 1 presents the data obtained.

[2] = system: embryonic cortical neurons; assay: Embryonic cortical neuron outgrowth visualised by Tau1/MAP2 staining (FIG. 3); type: cell-based, rat; conditions: for axonal outgrowth (Tau1/MAP2 staining): BDNF 2 ng/ml or hypoxanthine 100 μM, FIG. 3
Source text: FIG. 3 is a series of photographs of embryonic cortical neurons grown in the presence of the indicated factors (BDNF, hypoxanthine, BDNF+6-thioguanine, BDNF+6-thioguanine+hypoxanthine), which have then been stained with either antibodies to Taul, antibodies to MAP2, or both antibodies to Taul and antibodies to MAP2, in order to visualize neuronal outgrowth.
as §1
Embryonic cortical neurons were grown in the presence of BDNF (2 ng/ml), hypoxanthine (100 μM), BDNF (2 ng/ml)+6-thioguanine (20 μM) , or BDNF (2 ng/ml)+6-thioguanine (20 μM)+hypoxanthine (100 μM), as described above. The cells were then fixed and stained with either antibodies to Taul, antibodies to map2, or both antibodies to Taul and antibodies to map2, and corresponding fluorescent secondary antibodies, in order to visualize axonal outgrowth.

[3] = system: embryonic cortical neurons; assay: Embryonic cortical neuron axonal outgrowth with or without BCX-34 (FIG. 2); type: cell-based, rat; conditions: inosine or hypoxanthine 100 μM, BDNF 2 ng/ml
Procedure: as §1
In a similar experiment, embryonic cortical neurons were given brain derived neurotrophic factor (BDNF) (2 ng/ml), inosine, or hypoxanthine (100 μM). […] The cells were then scored for neuron axonal outgrowth. The data collected is represented in FIG. 2.

[4] = biological target: Mst3b (Homo sapiens, UniProt Q9Y6E0); conditions: data not shown
Sequence of Mst3b (Q9Y6E0 whole entry): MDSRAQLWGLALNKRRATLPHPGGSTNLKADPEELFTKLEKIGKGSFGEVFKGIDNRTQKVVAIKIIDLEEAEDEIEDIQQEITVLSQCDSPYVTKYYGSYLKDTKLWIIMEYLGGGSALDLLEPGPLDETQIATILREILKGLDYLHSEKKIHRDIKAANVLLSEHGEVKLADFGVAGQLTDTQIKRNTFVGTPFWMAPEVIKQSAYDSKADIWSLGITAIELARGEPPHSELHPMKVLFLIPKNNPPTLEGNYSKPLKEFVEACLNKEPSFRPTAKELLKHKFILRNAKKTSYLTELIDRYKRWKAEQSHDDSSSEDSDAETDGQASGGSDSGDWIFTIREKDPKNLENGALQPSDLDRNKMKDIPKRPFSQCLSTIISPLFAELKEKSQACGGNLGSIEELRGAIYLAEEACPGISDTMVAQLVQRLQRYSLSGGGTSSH

Molecule: Nc1nc2nc[nH]c2c(=S)[nH]1 [6-TG, 6-thioguanine, reference compound]
inhibition by 6-thioguanine of inosine- and hypoxanthine-induced axon outgrowth [1]: competitively inhibited the actions of both inosine and hypoxanthine
inhibition by 6-thioguanine of inosine- and hypoxanthine-induced axon outgrowth ([1]; listed as 6-thioguanine): competitively inhibits the actions of both inosine and hypoxanthine
inhibition of BDNF stimulated outgrowth ([2]; BDNF 2 ng/ml + 6-thioguanine 20 μM): can be inhibited

activation of Mst3b [4]: activates Mst3b
Molecule: O=c1[nH]cnc2nc[nH]c12 [hypoxanthine]
inhibition by 6-thioguanine of inosine- and hypoxanthine-induced axon outgrowth [1]: similarly inhibited by 6-TG
induction of axonal outgrowth [3]: induced axonal outgrowth similarly to BDNF
reversal of 6-TG inhibition of BDNF stimulated outgrowth ([2]; BDNF 2 ng/ml + 6-thioguanine 20 μM + hypoxanthine 100 μM): inhibition can be overcome; also recorded: inhibition was overcome
axonal outgrowth (Tau1/MAP2 staining) [2]: cause outgrowth; also recorded: caused axonal outgrowth

Molecule: OC[C@H]1O[C@@H](n2cnc3c(O)ncnc32)[C@H](O)[C@@H]1O [inosine, reference compound]
inhibition by 6-thioguanine of inosine- and hypoxanthine-induced axon outgrowth [1]: similarly inhibited by 6-TG
induction of axonal outgrowth [3]: induced axonal outgrowth similarly to BDNF

B1: BDNF: brain derived neurotrophic factor (protein, UniProt P23560 19-247, looked up)
Neurotrophic factor BDNF …: APMKEANIRGQGGLAYPGVRTHGTLESVNGPKAGSRGLTSLADTFEHVIEELLDEDQKVRPNEENNKDADLYTSRVMLSSQVPLEPPLLFLLEEYKNYLDAANMSMRVRRHSDPARRGELSVCDSISEWVTAADKKTAVDMSGGTVTVLEKVPVSKGQLKQYFYETKCNPMGYTKEGCRGIDKRHWNSQCRTTQSYVRALTMDSKKRIGWRFIRIDTSCVCTLTIKRGR
axonal outgrowth (Tau1/MAP2 staining) [2]: cause outgrowth; also recorded: caused axonal outgrowth
